Source: ChEMBL document CHEMBL5058564, “EUbOPEN Chemogenomics Library 2 (Incucyte)” (2022)

Experiments:
Type in all cases: toxicity, cell-based
U2OS = experiment: Incucyte cell viability with U2OS; details: human, 10 µM, compound concentration 10 uM
HEK-293T = experiment: Incucyte cell viability with HEK293T; details: human, 10 µM, compound concentration 10 uM
Fibroblast = experiment: Incucyte cell viability with human fibroblast; details: 10 µM, compound concentration 10 uM
[1] = 0 h, replicate number 1, timepoint 0 hours
[2] = 6 h, replicate number 2, timepoint 6 hours
[3] = 12 h, replicate number 2, timepoint 12 hours
[4] = 18 h, replicate number 1, timepoint 18 hours
[5] = 18 h, replicate number 2, timepoint 18 hours
[6] = 24 h, replicate number 1, timepoint 24 hours
[7] = 0 h, replicate number 2, timepoint 0 hours
[8] = 6 h, replicate number 1, timepoint 6 hours
[9] = 12 h, replicate number 1, timepoint 12 hours
[10] = 24 h, replicate number 2, timepoint 24 hours
Further: unitless GR value; below 1 slowed growth and below 0 cell loss.

| SMILES | Growth Rate (U2OS; [1]) | Growth Rate (U2OS; [2]) | Growth Rate (U2OS; [3]) | Growth Rate (U2OS; [4]) | Growth Rate (U2OS; [5]) | Growth Rate (U2OS; [6]) | Growth Rate (HEK-293T; [3]) | Growth Rate (Fibroblast; [1]) | Growth Rate (Fibroblast; [7]) | Growth Rate (Fibroblast; [8]) | Growth Rate (Fibroblast; [2]) | Growth Rate (Fibroblast; [9]) | Growth Rate (Fibroblast; [4]) | Growth Rate (U2OS; [7]) | Growth Rate (HEK-293T; [7]) | Growth Rate (HEK-293T; [2]) | Growth Rate (Fibroblast; [3]) | Growth Rate (U2OS; [8]) | Growth Rate (U2OS; [9]) | Growth Rate (HEK-293T; [8]) | other results |
| --- | --- | --- | --- | --- | --- | --- | --- | --- | --- | --- | --- | --- | --- | --- | --- | --- | --- | --- | --- | --- | --- |
| COCCCN1CCC(NC(=O)c2cc(Cl)c(N)c3c2OCC3)CC1 [PRUCALOPRIDE] | 0.24 | 0.76 | 0.99 | 0 | 0.98 | 0.1 | 0.99 | 0.48 | 0.89 | 0.71 | 0.75 | 0.6 | 0.86 |  |  |  |  |  |  |  |  |
| N[C@@]1(C(=O)O)CO[C@H]2[C@H](C(=O)O)[C@H]21 [LY-379268] | -0.44 | 0.99 |  |  | 0.92 |  |  |  | 0.44 |  | 0.16 |  |  | -0.79 | 0.79 | 0.88 | 0.66 |  |  |  | Growth Rate (HEK-293T; [1]): 0.68 |
| Cc1cc(CN)cc(C)c1-c1ncn(C)c1-c1ccnc2cc(F)ccc12 | -0.16 | 0.18 | 0.55 | 0.92 | 0.73 | 0.79 | 0.96 |  | 0.5 | 0.31 |  | 0.5 | 0.18 | -0.67 | 0.31 | 0.7 | 0.83 | 0.54 | 0.64 | 0.86 | Growth Rate (HEK-293T; [9]): 0.93; Growth Rate (HEK-293T; [4]): 0.79; Growth Rate (HEK-293T; [5]): 0.92; Growth Rate (HEK-293T; [6]): 0.87; Growth Rate (HEK-293T; [10]): 0.92; Growth Rate (Fibroblast; [5]): 0.64; Growth Rate (Fibroblast; [6]): 0.09; Growth Rate (Fibroblast; [10]): 0.58 |
| CSc1ccccc1N1CCN(CCCCCC(=O)NC2CCCc3ccccc32)CC1.Cl (stereo unspecified) | -0.43 |  | 0.96 | 0.53 | 0.92 | 0.76 | -0.09 | 0.06 |  |  | 0.95 | 0.31 | 0.05 | 0.92 |  | -0.04 | 0.26 | 0.17 | 0.43 | -0.01 | Growth Rate (U2OS; [10]): 0.94; Growth Rate (HEK-293T; [9]): 0.07; Growth Rate (HEK-293T; [4]): 0.16; Growth Rate (HEK-293T; [5]): 0.15; Growth Rate (HEK-293T; [6]): 0.29; Growth Rate (HEK-293T; [10]): 0.17; Growth Rate (Fibroblast; [5]): 0.24; Growth Rate (Fibroblast; [6]): -0.06; Growth Rate (Fibroblast; [10]): 0.23 |
| Cc1c(Cc2ccc3ccccc3n2)c2cc(F)ccc2n1CC(=O)O [TIMAPIPRANT] |  |  |  | 0.63 | 0.96 |  |  | 0.53 | 0.31 | 0.6 |  | 0.51 | 0.8 | -1 | 0.4 |  |  | 0.37 | 0.81 |  | Growth Rate (HEK-293T; [4]): 0.82; Growth Rate (Fibroblast; [6]): 0.87 |
| CC(C)c1cc(Oc2c(Cl)cc(-n3nc(C#N)c(=O)[nH]c3=O)cc2Cl)n[nH]c1=O [RESMETIROM] | 0.87 | 0.54 | 0.75 | 0.83 | 0.79 | 0.99 |  | -0.06 | 0.82 |  | 0.58 |  |  | 0.06 | 0.23 |  | 0.74 | 0.7 |  | 0.99 | Growth Rate (HEK-293T; [1]): 0.01; Growth Rate (HEK-293T; [9]): 0.77; Growth Rate (HEK-293T; [5]): 0.96; Growth Rate (HEK-293T; [10]): 0.86; Growth Rate (Fibroblast; [5]): 0.87; Growth Rate (Fibroblast; [10]): 0.85 |
| COC(=O)Nc1nc2ccc(C(=O)c3cccs3)cc2[nH]1 [NOCODAZOLE] |  | 0.24 | -0.16 | 0.03 | -0.36 | -0.06 | -0.32 |  |  | -0.86 | -0.39 | -0.6 | -0.54 |  |  | -0.49 | -0.2 | 0.3 | 0.1 | -0.46 | Growth Rate (U2OS; [10]): -0.35; Growth Rate (HEK-293T; [9]): -0.24; Growth Rate (HEK-293T; [4]): -0.22; Growth Rate (HEK-293T; [5]): -0.34; Growth Rate (HEK-293T; [6]): -0.22; Growth Rate (HEK-293T; [10]): -0.26; Growth Rate (Fibroblast; [5]): -0.04; Growth Rate (Fibroblast; [6]): -0.33; Growth Rate (Fibroblast; [10]): 0.08 |
